{
  "source": "patent US5800838A",
  "about": "“Composition that inhibits or destroys at least one unicellular living organism containing fluorine F- and Lithium li+” (priority 1987, dated 1998)",
  "key": {"[1]": {"system": "pseudomonas aeruginosa and Escherichia coli", "type": "cell-based", "text": "It is known that a strain develops a resistance against an antibiotic substance with which it is left in contact, by a phenotypical mutation procedure.\nThis phenomena has been studied on pseudomonas aeruginosa and Escherichia coli (wild-type hospital strains) which commonly develop resistance against aminosides. The antibiotic substance choosen was thus gentamicine which is an aminoside antibiotic.\nAnd the growth of the resistance was studied with gentamicine alone, then with gentamicine in presence of Fli.\nThe trial was conducted on 12 days, and the MIC of gentamicine alone and of gentamicine in presence of Fli (4 ppm) was determined each day on transportplates in liquid medium with a serie of dilution in Mueller/Hinton agar.\nThe MBC (Minimal Bactericide Concentration) was also determined from the solution after determination of the MIC seeded on agar adapted to the strain. The MBC is read for a percentage of survivors less than 0,20%."}, "proteus mirabilis [2]": {"system": "proteus mirabilis", "assay": "MIC of gentamicine, inclined agar with concentration gradient", "type": "cell-based", "conditions": "alone; SENSIBLE strains", "method": "(§1) The strains used were wild-type hospital strains having a resistant phenotype as regards gentamicine: pseudomonas aeruginosa, proteus mirabilis, serratia marcescens.\n(§2) The phenotype of the strains was determined by diffusion in gradient on selective agar. Then, each group of strains having the same phenotype (resistant or sensible) was seeded on inclined agar having a gradient of concentration of the composition.\n(§3) This methodology is explained by SZYBALSKI and BRYSON in \"Selection de mutants resistant aux antibiotiques\", L'antibiogramme, Vigot, p. 259-260.\n(§4) The results are shown in the following table illustrating the MIC of gentamicine (aminoglycoside antibiotic).\n(§5) x/y means a concentration read between x ppm and y ppm."}, "Pseudomonas aeruginosa [3]": {"system": "Pseudomonas aeruginosa", "assay": "MIC of gentamicine, inclined agar with concentration gradient", "type": "cell-based", "conditions": "alone; SENSIBLE strains", "method": "as §1, §2, §3, §4, §5"}, "serratia marcescens [4]": {"system": "serratia marcescens", "assay": "MIC of gentamicine, inclined agar with concentration gradient", "type": "cell-based", "conditions": "alone; SENSIBLE strains", "method": "as §1, §2, §3, §4, §5"}, "Staphylococcus aureus [5]": {"system": "Staphylococcus aureus", "quoted_text": "Concentration series of two antibiotic substances A and B are prepared in the geometric ratio of 2 are combined and the following values are determined:\nMIC B/A = minimal inhibiting concentration B in presence of A [formula]\nThe MIC of the bacteriostatic effect is read when the percentage of surviving strains is less or equal to 1%.\nThe combination of the substances A and B is synergistic as regards the bacteriostatic effect when FIC≤0,75. The combination is additive when FIC=1. The combination is insensible when 1<FIC≤2. The combination is antagonistic when FIC>2.\nSubstance A was tetracycline (concentration serie from 0,25 to 128 mg/l)\nSubstance B was Fli (concentration serie from 0,25 to 16 mg/l)\nThe strain was staphylococcus aureus (wild-type hospital resistant strain)"}, "spermatozoa": {"system": "spermatozoa", "assay": "SANDERS-CRAMER total spermicidal test according to IPPF standards", "type": "cell-based", "conditions": "alone"}, "salmonella spirochete": {"system": "salmonella spirochete", "assay": "\"Time killing curve\", optical density at 600 nm", "type": "cell-based", "conditions": "Fli 32 ppm", "method": "(§6) The kinetics of the bacterial growth of serratia marcescens and salmonella spirochete has been studied with the \"Time killing curve\" methodology, for gentamicine (64 ppm) alone, Fli (32 ppm) and gentamicine (64 ppm) in presence of Fli (32 ppm). The bacterial growth is determined by spectrophotometric reading of the optical density for a wavelength of 600 nm.\n(§7) The following table illustrates the optical density (1/100) obtained: […]"}, "serratia marcescens [6]": {"system": "serratia marcescens", "assay": "\"Time killing curve\", optical density at 600 nm", "type": "cell-based", "conditions": "Fli 32 ppm", "method": "as §6, §7"}, "Pseudomonas aeruginosa [7]": {"system": "Pseudomonas aeruginosa", "assay": "\"chess\" test, dilution in liquid medium, Trial 4", "type": "cell-based", "text": "(§8) Substance A was gentamicine\nThe strain was pseudomonas aeruginosa (wild-type hospital resistant strain)"}, "MAC COY cells": {"system": "MAC COY cells", "assay": "Cytotoxic activity with respect to MAC COY cells", "conditions": "LiF at 1 mg/l; benzalkonium chloride under the conditions of the trials"}, "proteus mirabilis [8]": {"system": "proteus mirabilis", "assay": "\"chess\" test, dilution in liquid medium, Trial 2", "type": "cell-based", "text": "as §8\nThe strain was a very resistant proteus mirabilis (wild-type hospital)"}, "Klebsiella pneumoniae [9]": {"system": "Klebsiella pneumoniae", "assay": "\"chess\" test, dilution in liquid medium, Trial 3", "type": "cell-based", "text": "as §8\nThe strain was Klebsiella pneumoniae (wild-type hospital strain)"}, "staphylococcus aeurus": {"system": "staphylococcus aeurus", "type": "cell-based", "conditions": "Fli 4 ppm", "method": "Strains Gram+ and Gram- (wild-type hospital) having a resistant phenotype vis a vis standard firstly and secondly used antibiotherapy were experimented on activated antibiotics.\n250 experiments were conducted on the following strains: Streptococcus group B, C, D, F, G, Staphylococcus aureus, Staphylococcus epidermitis, Klebsiella pneumoniae, Klebsiella spirochete, Klebsiella oxytoca, Proteus mirabilis, Serratia marcescens, Escherichia coli, Citrobacter freundii, Enterobacter cloacae, Enterobacter calcoaceticus, Salmonella spirochete, Salmonella typhimurium, Pseudomonas aeruginosa, Haemophilus influenzae, Haemophilus sphrophilus, Acinetobacter calcoaeticus. […]"}, "[10]": {"system": "Haemophilus influenzae producing β-lactamase", "assay": "Antibiotic activity of amoxicillin on hospital strains producing β-lactamase (Example 22)", "conditions": "4 ppm amoxicillin in the presence of 1 ppm clavulanic acid"}, "[11]": {"system": "Escherichia coli (TEM plasmid)", "assay": "microbe, parasite or virus in culture", "type": "cell-based"}, "Haemophilus influenzae": {"system": "Haemophilus influenzae", "assay": "Antibiotic activity on hospital strains normally resistant to amoxicillin", "type": "cell-based"}, "[12]": {"system": "β-Haemolytic streptococcus", "assay": "Antibiotic activity on hospital strains normally resistant to amoxicillin", "type": "cell-based", "conditions": "read-out: 100% inhibitory concentration"}, "Klebsiella pneumoniae [13]": {"system": "Klebsiella pneumoniae", "assay": "Antibiotic activity on hospital strains normally resistant to amoxicillin", "type": "cell-based", "conditions": "read-out: 100% inhibitory concentration"}, "Staphylococcus aureus [14]": {"system": "Staphylococcus aureus", "assay": "Antibiotic activity on hospital strains normally resistant to amoxicillin", "type": "cell-based", "conditions": "read-out: 100% inhibitory concentration"}, "[15]": {"conditions": "alone, wild-type hospital resistant strain"}, "[16]": {"conditions": "B (Fli) in presence of A (gentamicine)"}, "[17]": {"conditions": "read-out: 100% inhibitory concentration, alone"}},
  "note": "Like-named read-outs stand apart in the source and are kept apart here.",
  "data": [
    {"molecule": "[F-].[Li+]", "note": "[lithium fluoride]", "values": [
      {"measurement": "effect on creation of resistance", "setting": "[1]", "value": "retards the creation of the resistance and reduces to the half the capability of each strain for developping such resistances"},
      {"measurement": "resistance developed by the strain", "setting": "[1]; against Fli, 12 days", "value": "no resistance is developped"},
      {"measurement": "MIC", "setting": "proteus mirabilis [2]", "value": "> 32 ppm or mg/l"},
      {"measurement": "MIC", "setting": "Pseudomonas aeruginosa [3]", "value": "> 32 ppm or mg/l"},
      {"measurement": "MIC", "setting": "serratia marcescens [4]", "value": "> 32 ppm or mg/l"},
      {"measurement": "MIC B/A", "setting": "Staphylococcus aureus [5]; B (Fli) in presence of A (tetracycline)", "value": 16, "unit": "µg/mL"},
      {"measurement": "MIC alone (MIC A, MIC B)", "setting": "Staphylococcus aureus [5]; [15]", "value": 64, "unit": "µg/mL"},
      {"measurement": "MIC", "setting": "spermatozoa", "value": "~3", "unit": "ppm"},
      {"measurement": "MIC, equivalent in %", "setting": "spermatozoa", "value": "~0.0003", "unit": "%"},
      {"measurement": "optical density (1/100)", "setting": "salmonella spirochete; 3 h 00, gentamicine 64 ppm", "value": "14 1/100"},
      {"measurement": "optical density (1/100)", "setting": "salmonella spirochete; 24 h 00, gentamicine 64 ppm", "value": "20 1/100"},
      {"measurement": "optical density (1/100)", "setting": "serratia marcescens [6]; 3 h 00, gentamicine 64 ppm", "value": "13 1/100"},
      {"measurement": "optical density (1/100)", "setting": "serratia marcescens [6]; 6 h 00, gentamicine 64 ppm", "value": "15 1/100"},
      {"measurement": "optical density (1/100)", "setting": "serratia marcescens [6]; 24 h 00, gentamicine 64 ppm", "value": "18 1/100"},
      {"measurement": "MIC B/A", "setting": "Pseudomonas aeruginosa [7]; [16]", "value": 16, "unit": "µg/mL"},
      {"measurement": "MIC alone (MIC A, MIC B)", "setting": "Pseudomonas aeruginosa [7]; [15]", "value": 128, "unit": "µg/mL"},
      {"measurement": "toxic activity", "setting": "MAC COY cells", "value": "does not have toxic activity"},
      {"measurement": "MIC B/A", "setting": "proteus mirabilis [8]; [16]", "value": 16, "unit": "µg/mL"},
      {"measurement": "MIC alone (MIC A, MIC B)", "setting": "proteus mirabilis [8]; alone, very resistant wild-type hospital strain", "value": 128, "unit": "µg/mL"},
      {"measurement": "MIC B/A", "setting": "Klebsiella pneumoniae [9]; [16]", "value": 32, "unit": "µg/mL"},
      {"measurement": "MIC alone (MIC A, MIC B)", "setting": "Klebsiella pneumoniae [9]; alone, wild-type hospital strain", "value": 128, "unit": "µg/mL"}
    ]},
    {"molecule": "CC1(C)S[C@@H]2[C@H](NC(=O)[C@H](N)c3ccc(O)cc3)C(=O)N2[C@H]1C(=O)O", "note": "[amoxicillin]", "values": [
      {"measurement": "phenotype in presence of Fli", "setting": "staphylococcus aeurus", "value": "the resistant phenotype was not changed"},
      {"measurement": "time to inhibition of the strains to 100%", "setting": "[10]", "value": 24, "unit": "h"},
      {"measurement": "MIC", "setting": "[11]; [17]", "value": "> 128", "unit": "µg/mL"},
      {"measurement": "MIC", "setting": "[11]; read-out: 100% inhibitory concentration, in the presence of LiF 8 ppm", "value": 32, "unit": "µg/mL"},
      {"measurement": "MIC", "setting": "Haemophilus influenzae; in the presence of LiF 8 ppm, read-out: 100% inhibitory concentration", "value": 32, "unit": "µg/mL"},
      {"measurement": "MIC", "setting": "Haemophilus influenzae; [17]", "value": "> 128", "unit": "µg/mL"},
      {"measurement": "MIC", "setting": "[12]; alone", "value": 16, "unit": "µg/mL"},
      {"measurement": "MIC", "setting": "[12]; in the presence of LiF 8 ppm", "value": 4, "unit": "µg/mL"},
      {"measurement": "MIC", "setting": "Klebsiella pneumoniae [13]; alone", "value": 64, "unit": "µg/mL"},
      {"measurement": "MIC", "setting": "Klebsiella pneumoniae [13]; in the presence of LiF 8 ppm", "value": 2, "unit": "µg/mL"},
      {"measurement": "MIC", "setting": "Staphylococcus aureus [14]; alone", "value": 32, "unit": "µg/mL"},
      {"measurement": "MIC", "setting": "Staphylococcus aureus [14]; in the presence of LiF 8 ppm", "value": 8, "unit": "µg/mL"}
    ]}
  ]
}
